Reference: patent publication US7312245B2 (priority 2001, dated 2007)
Read-outs that look alike come from different tables or passages of the source.

Experiments:
Format in all cases: in vivo
Pyricularia oryzae [1] = conditions: nursery box treated with granules 50 g per box; rice Koshihikari; inoculated 30 days after transplantation; lesions counted after 1 week
Pyricularia oryzae [2] = conditions: spray application of wettable powder diluted to 500 ppm; rice Koshihikari 2-leaf stage; spray-inoculated with Pyricularia oryzae spores; examined after 7 days
Pyricularia oryzae [3] = conditions: granules applied to water surface at 3 kg/10 ares; rice Koshihikari; inoculated 30 days after application; lesions checked after 1 week

Compound | Grade of Effect (preventive value, rice blast controlling effect) (Pyricularia oryzae [1]) | Grade of Effect (preventive value, rice blast controlling effect) (Pyricularia oryzae [2]) | Grade of Effect (preventive value, rice blast controlling effect) (Pyricularia oryzae [3])
CC(C)OC(=O)NC(CNC(=O)c1ccc(Cl)cc1)Cc1ccccc1 (stereo not drawn) [compound 290, N-(4-chlorobenzoyl)-N′-(i-propoxycarbonyl)-3-phenyl-1,2-propanediamine] | A (From 80% to 100%) | A (100%) | A (From 80% to 100%)
Cc1ccc(C(=O)NCC(NC(=O)OCC(C)(C)C)C(C)C)cc1 (stereo not drawn) [compound 1201] | A (From 80% to 100%) | A (100%) | A (From 80% to 100%)
Cc1ccc(C(=O)NCC(C)(NC(=O)OC(C)C)C(C)C)cc1 (stereo not drawn) [compound 245] | A (From 80% to 100%) | A (100%) | A (From 80% to 100%)
CSCCOC(=O)NC(CNC(=O)c1ccc(C)cc1)C(C)C (stereo not drawn) [compound 1261] | A (From 80% to 100%) | A (100%) | A (From 80% to 100%)
Cc1ccccc1C(=O)NCC(NC(=O)OC(C)C)C(C)C (stereo not drawn) [compound 239] | A (From 80% to 100%) | A (100%) | A (From 80% to 100%)
COC(=O)NC(CNC(=O)c1ccc(C)cc1)C(C)C (stereo not drawn) [compound 30] | A (From 80% to 100%) | A (100%) | A (From 80% to 100%)
Cc1ccc(C(=O)NCC(NC(=O)OCc2ccc(Cl)cc2)C(C)C)cc1 (stereo not drawn) [compound 1066] | A (From 80% to 100%) | A (100%) | A (From 80% to 100%)
CC(C)C(CNC(=O)c1ccc(Cl)cc1)NC(=O)OCC1CCCO1 (stereo not drawn) [compound 1153] | A (From 80% to 100%) | A (100%) | A (From 80% to 100%)
COC(=O)NC(C)CNC(=O)c1ccc(Cl)cc1 (stereo not drawn) [compound 4] | A (From 80% to 100%) | A (100%) | A (From 80% to 100%)
CSCCOC(=O)NC(CNC(=O)c1ccc(Cl)cc1)C(C)C (stereo not drawn) [compound 1258] | A (From 80% to 100%) | A (100%) | A (From 80% to 100%)
Cc1ccc(C(=O)NCC(NC(=O)Oc2ccccc2)C(C)C)cc1 (stereo not drawn) [compound 530] | A (From 80% to 100%) | A (100%) | A (From 80% to 100%)
Cc1ccc(C(=O)NCC(NC(=O)OCc2ccco2)C(C)C)cc1 (stereo not drawn) [compound 1126] | A (From 80% to 100%) | A (100%) | A (From 80% to 100%)
